PubChem BioAssay AID1918933 (Molecular Pharmacology Branch, DTP, NCI, 2023)

Tested on: 186277-243-T-J2-PDC complex spheroid viability
Assay: Anticancer human tumor 186277-243-T-J2-PDC patient-derived colon adenocarcinoma cell line growth inhibition
Conditions: for IC50: curve of first compound; for viability, T/C: stronger effect = lower value
Method in brief: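 Complex spheroids of tumor cells with HUVEC and human MSCs, exposed to iadademstat combined with other agents. Each agent tested in half-log steps from near clinical Cmax (else 10 microM top), DMSO ≤0.25%.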

[1] = second compound 0.1 µM, first compound 0.00949 µM
[2] = second compound 0.1 µM, first compound 0.03 µM
[3] = second compound 0.1 µM, first compound 0.0949 µM
[4] = second compound 0.1 µM, first compound 0.3 µM
[5] = second compound 0.316 µM, first compound 0.00949 µM
[6] = second compound 0.316 µM, first compound 0.03 µM
[7] = second compound 0.316 µM, first compound 0.0949 µM
[8] = second compound 0.316 µM, first compound 0.3 µM
[9] = second compound 1 µM, first compound 0.00949 µM
[10] = second compound 1 µM, first compound 0.03 µM
[11] = second compound 1 µM, first compound 0.0949 µM
[12] = second compound 1 µM, first compound 0.3 µM
[13] = second compound 3.16 µM, first compound 0.00949 µM
[14] = second compound 3.16 µM, first compound 0.03 µM
[15] = second compound 3.16 µM, first compound 0.0949 µM
[16] = second compound 3.16 µM, first compound 0.3 µM
[17] = second compound 10 µM, first compound 0.00949 µM
[18] = second compound 10 µM, first compound 0.03 µM
[19] = second compound 10 µM, first compound 0.0949 µM
[20] = second compound 10 µM, first compound 0.3 µM
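Note: 7 day exposure to compounds.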
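Throughout, for viability, T/C: 100% = DMSO vehicle control viability.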

CCN(c1cc(-c2ccc(CN3CCOCC3)cc2)cc(C(=O)NCc2c(C)cc(C)[nH]c2=O)c1C)C1CCOCC1 + NC1CCC(NC2CC2c2ccccc2)CC1
IC50 (second compound 0.1 µM): > 3000 nM | IC50 (second compound 0.316 µM): > 3000 nM | IC50 (second compound 1 µM): > 3000 nM | IC50 (second compound 3.16 µM): > 3000 nM | IC50 (second compound 10 µM): > 3000 nM | viability, T/C [1]: 108% | viability, T/C [2]: 94% | viability, T/C [3]: 108% | viability, T/C [4]: 116% | viability, T/C (second compound 0.1 µM, first compound 0.949 µM): 105% | viability, T/C (second compound 0.1 µM, first compound 3 µM): 110% | viability, T/C [5]: 112% | viability, T/C [6]: 102% | viability, T/C [7]: 110% | viability, T/C [8]: 112% | viability, T/C (second compound 0.316 µM, first compound 0.949 µM): 113% | viability, T/C (second compound 0.316 µM, first compound 3 µM): 113% | viability, T/C [9]: 122% | viability, T/C [10]: 121% | viability, T/C [11]: 108% | viability, T/C [12]: 111% | viability, T/C (second compound 1 µM, first compound 0.949 µM): 111% | viability, T/C (second compound 1 µM, first compound 3 µM): 102% | viability, T/C [13]: 110% | viability, T/C [14]: 115% | viability, T/C [15]: 107% | viability, T/C [16]: 117% | viability, T/C (second compound 3.16 µM, first compound 0.949 µM): 121% | viability, T/C (second compound 3.16 µM, first compound 3 µM): 111% | viability, T/C [17]: 105% | viability, T/C [18]: 94.8% | viability, T/C [19]: 95.9% | viability, T/C [20]: 107% | viability, T/C (second compound 10 µM, first compound 0.949 µM): 109% | viability, T/C (second compound 10 µM, first compound 3 µM): 98.3%

Nc1ncn(C2CC(O)C(CO)S2)c(=O)n1 (stereo not given) + NC1CCC(NC2CC2c2ccccc2)CC1
IC50 (second compound 0.1 µM): 77.6 nM | IC50 (second compound 0.316 µM): 74 nM | IC50 (second compound 1 µM): 72.4 nM | IC50 (second compound 3.16 µM): 75.3 nM | IC50 (second compound 10 µM): 89 nM | viability, T/C (second compound 0.1 µM, first compound 0.000949 µM): 125% | viability, T/C (second compound 0.1 µM, first compound 0.003 µM): 126% | viability, T/C [1]: 132% | viability, T/C [2]: 107% | viability, T/C [3]: 38.1% | viability, T/C [4]: 9.48% | viability, T/C (second compound 0.316 µM, first compound 0.000949 µM): 108% | viability, T/C (second compound 0.316 µM, first compound 0.003 µM): 129% | viability, T/C [5]: 123% | viability, T/C [6]: 105% | viability, T/C [7]: 34.9% | viability, T/C [8]: 10.6% | viability, T/C (second compound 1 µM, first compound 0.000949 µM): 115% | viability, T/C (second compound 1 µM, first compound 0.003 µM): 125% | viability, T/C [9]: 146% | viability, T/C [10]: 90% | viability, T/C [11]: 40.3% | viability, T/C [12]: 11.5% | viability, T/C (second compound 3.16 µM, first compound 0.000949 µM): 119% | viability, T/C (second compound 3.16 µM, first compound 0.003 µM): 132% | viability, T/C [13]: 140% | viability, T/C [14]: 109% | viability, T/C [15]: 35.7% | viability, T/C [16]: 12.7% | viability, T/C (second compound 10 µM, first compound 0.000949 µM): 118% | viability, T/C (second compound 10 µM, first compound 0.003 µM): 125% | viability, T/C [17]: 144% | viability, T/C [18]: 112% | viability, T/C [19]: 46.9% | viability, T/C [20]: 13.3%

O=C(C=Cn1cnc(-c2cc(C(F)(F)F)cc(C(F)(F)F)c2)n1)NNc1cnccn1 + NC1CCC(NC2CC2c2ccccc2)CC1
IC50 (second compound 0.1 µM): 16.6 nM | IC50 (second compound 0.316 µM): 18.6 nM | IC50 (second compound 1 µM): 17 nM | IC50 (second compound 3.16 µM): 18.2 nM | IC50 (second compound 10 µM): 16.8 nM | viability, T/C (second compound 0.1 µM, first compound 0.00316 µM): 98.7% | viability, T/C (second compound 0.1 µM, first compound 0.01 µM): 73.7% | viability, T/C (second compound 0.1 µM, first compound 0.0316 µM): 19.7% | viability, T/C (second compound 0.1 µM, first compound 0.1 µM): 5.58% | viability, T/C (second compound 0.1 µM, first compound 0.316 µM): 3.09% | viability, T/C (second compound 0.1 µM, first compound 1 µM): 0.76% | viability, T/C (second compound 0.316 µM, first compound 0.00316 µM): 98.9% | viability, T/C (second compound 0.316 µM, first compound 0.01 µM): 83.6% | viability, T/C (second compound 0.316 µM, first compound 0.0316 µM): 20.9% | viability, T/C (second compound 0.316 µM, first compound 0.1 µM): 10.7% | viability, T/C (second compound 0.316 µM, first compound 0.316 µM): 3.03% | viability, T/C (second compound 0.316 µM, first compound 1 µM): 2.56% | viability, T/C (second compound 1 µM, first compound 0.00316 µM): 91.4% | viability, T/C (second compound 1 µM, first compound 0.01 µM): 76.3% | viability, T/C (second compound 1 µM, first compound 0.0316 µM): 19.3% | viability, T/C (second compound 1 µM, first compound 0.1 µM): 7.63% | viability, T/C (second compound 1 µM, first compound 0.316 µM): 3.96% | viability, T/C (second compound 1 µM, first compound 1 µM): 0.59% | viability, T/C (second compound 3.16 µM, first compound 0.00316 µM): 121% | viability, T/C (second compound 3.16 µM, first compound 0.01 µM): 83.3% | viability, T/C (second compound 3.16 µM, first compound 0.0316 µM): 19.2% | viability, T/C (second compound 3.16 µM, first compound 0.1 µM): 5.56% | viability, T/C (second compound 3.16 µM, first compound 0.316 µM): 5.32% | viability, T/C (second compound 3.16 µM, first compound 1 µM): 0.63% | viability, T/C (second compound 10 µM, first compound 0.00316 µM): 131% | viability, T/C (second compound 10 µM, first compound 0.01 µM): 76.8% | viability, T/C (second compound 10 µM, first compound 0.0316 µM): 17.3% | viability, T/C (second compound 10 µM, first compound 0.1 µM): 4.86% | viability, T/C (second compound 10 µM, first compound 0.316 µM): 3.33% | viability, T/C (second compound 10 µM, first compound 1 µM): 0.57%
